The values that follow come from article PMC5487681, “Identification of Antifungal H^+-ATPase Inhibitors with Effect on Plasma Membrane Potential” (Antimicrobial Agents and Chemotherapy, 2017).

The term IC50 denotes the concentration that gives 50% inhibition.

Data set [1] in a line: Compound precipitation in the fungal growth medium. Format: physicochemical. Particulars: fungal growth medium (RPMI), footnotes of Table 1. As for the experimental part:
(§1) The following fungal isolates were used: Saccharomyces cerevisiae ATCC 9763, Candida albicans SC5314, Candida parapsilosis ATCC 22019, Candida tropicalis Ct016, Candida glabrata ATCC 90030, Aspergillus fumigatus ATCC 13073, and Aspergillus flavus ATCC MYA-1005. Frozen stocks of yeast isolates in glycerol (final concentration, 20%) were prepared by growing the cells to log phase in YPD medium at 30°C and 150 rpm. Frozen stocks of mold spores were prepared by harvesting spores from 7-day-old potato glucose agar plates in phosphate-buffered saline, 0.1% Tween 80 and aliquoting these spores in the presence of glycerol (final concentration, 20%). The cells were stored at −80°C. The cells or spores were thawed and diluted to a final concentration of 0.5 × 10^5 to 2.5 × 10^5 CFU/ml in sterile Milli-Q H2O. […] The plate was incubated for 20 to 24 h at 34°C (72 h for molds), and the OD490 was measured on a Victor X5 (PerkinElmer) plate reader. Mold growth assay plates were also visually inspected. The MIC was defined as the lowest concentration inhibiting the visual growth of the microorganism. Standard errors were typically below 5%.

The next data set has as its system Candida spp. Kind of data set: Fungal growth inhibition, Candida spp. (text summary of Table 1). It is filed as cell-based. Particulars: 38 μM highest concentration tested for compounds 4 and 8, read-out: MIC for several of the Candida spp. tested. The method, then: as §1
For the next data set, the system named is Candida albicans SC5314. Put plainly: microbe, parasite or virus in culture. Particulars: Candida albicans, SC5314, pH 7, read-out: MIC C. albicans. The method, then:
as §1, with “microorganism.” for “microorganism. Standard errors were typically below 5%.”

Another data set has as its target T1, Na^+,K^+-ATPase (Sus scrofa, UniProt P05024).
T1 construct: from tissue; host or cells: porcine kidney (gift of Natalya Fedosova, Aarhus University)
Kind of data set: ATP hydrolysis assay, Na+,K+-ATPase. Format: biochemical, porcine. Particulars: Table 1, read-out: IC50 Na^+,K^+-ATPase. As for the experimental part: (§2) Rabbit sarcoplasmic reticulum membranes containing sarcoplasmic endoplasmic reticulum Ca^2+-ATPase (SERCA) were kindly provided by Claus E. Olesen and Jesper V. Møller, Aarhus University, and prepared as described in reference. Porcine kidney Na^+,K^+-ATPase was kindly provided by Natalya Fedosova, Aarhus University, and prepared as described in reference.
(§3) The protein activity levels were determined by measuring the amount of free phosphate produced from the ATP hydrolysis reaction. The assay was performed as described in reference. Each well contained ATPase enzyme, 2 μl of inhibitor (usually in the range of 333 to 0.01 μM) dissolved in dimethyl sulfoxide (DMSO) (Duchefa Biochemie, Haarlem, The Netherlands), and an assay buffer dependent on the enzyme for a final volume of 60 μl. Possible compound precipitation in the assay buffer was monitored using a Nephelostar plate reader measuring turbidity, and the information was taken into account in the IC50 determination. Pma1 assay buffer consisted of 20 mM 3-(N-morpholino)propanesulfonic acid (MOPS)–NaOH, pH 6.5 or 7.0, 8 mM MgSO4, 50 mM KNO3 (a vacuolar ATPase inhibitor), 25 mM sodium azide (a mitochondrial ATPase inhibitor), and 250 μM sodium molybdate (an acid phosphatase inhibitor). SERCA buffer consisted of 9 mM MOPS-NaOH, pH 7, 2.7 mM MgCl2, 90 μM CaCl2, and 72 mM KCl. Na^+,K^+-ATPase buffer consisted of 30 mM MOPS-NaOH, pH 7, 40 mM NaCl, 4 mM MgCl2, and 20 mM KCl. The concentration of protein was adjusted to obtain a signal of the optical density at 860 nm (OD860) of between 0.5 and 1.0 in the untreated samples (for all Pma1 batches, ∼1 to 2 μg/well; for SERCA and Na^+,K^+-ATPase, ∼0.1 to 0.2 μg/well).

In data set [2] the target is T2, Ca^2+-ATPase (SERCA1a) (Oryctolagus cuniculus, UniProt P04191). Kind of data set: ATP hydrolysis assay, SERCA. Format: biochemical, rabbit. As for the experimental part: as §2, §3
Another data set concerns the target S. cerevisiae Pma1 (Saccharomyces cerevisiae, UniProt P05030). Put plainly: ATP hydrolysis assay, S. cerevisiae plasma membranes containing Pma1. Format: biochemical. Further details: containing the full-length cDNA of the S. cerevisiae plasma membrane H^+-ATPase isoform PMA1; made in house; host or cells: S. cerevisiae RS72 (PMA1 cDNA under PMA1 promoter); also wild-type S. cerevisiae ATCC 9763. As for the experimental part:
Plasma membranes containing Pma1 were isolated from S. cerevisiae RS72 cells containing the full-length cDNA of the S. cerevisiae plasma membrane H^+-ATPase isoform PMA1 under the control of the PMA1 promoter, as described in reference.
A 100-ml overnight culture in YPD medium [10 g/liter yeast extract (BD, Sparks, MD), 20 g/liter Bacto peptone (BD), 20 g/liter D-(+)-glucose] was transferred to 1 liter YPD medium and grown at room temperature and 150 rpm for 18 h for wild-type S. cerevisiae (ATCC 9763) and 7 h for C. albicans. The cells were harvested and washed in Milli-Q H2O by centrifugation at 3,360 × g. The cells were glucose activated by the addition of 10% D-(+)-glucose for 10 min while shaking. The cells were then centrifuged at 3,360 × g for 3 min and frozen. Cells (60 to 80 g, wet weight) were then disrupted by bead beating (BioSpec, Bartlesville, OK) and processed as described in reference to prepare the plasma membranes. […] All batches were validated by ATPase hydrolysis activity, pH optimum, and orthovanadate sensitivity.
as §3, with “μg/well). […]” for “μg/well).”

Data set [3] has as its system Candida glabrata ATCC 90030. Put plainly: microbe, parasite or virus in culture. As to conditions: Nakaseomyces glabratus, ATCC90030, pH 7, read-out: MIC C. glabrata. As for the experimental part:
as §1, with “microorganism.” for “microorganism. Standard errors were typically below 5%.”

Data set [4] relates to Candida parapsilosis ATCC 22019. Put plainly: microbe, parasite or virus in culture. Particulars: Lodderomyces parapsilosis, ATCC22019, pH 7, read-out: MIC C. parapsilosis. The method, then:
as §1, with “microorganism.” for “microorganism. Standard errors were typically below 5%.”

The next data set has as its system Candida tropicalis Ct016. Kind of data set: microbe, parasite or virus in culture. Particulars: Candida tropicalis, CT016, pH 7, read-out: MIC C. tropicalis. As for the experimental part:
as §1, with “microorganism.” for “microorganism. Standard errors were typically below 5%.”

The next data set concerns S. cerevisiae cells. Kind of data set: Intracellular ATP (iATP), S. cerevisiae. Particulars: S. cerevisiae and C. albicans (Fig. 5A, B); compared to compounds 14, 19 and BM2. It is filed as cell-based, Saccharomyces cerevisiae. The method, then: S. cerevisiae and C. albicans cells were grown and washed as described above for the membrane potential and integrity assay and resuspended in SG medium (0.7% yeast nitrogen base without amino acids [BD], 50 mM succinic acid adjusted to pH 7 with Trizma base) to OD600 of 0.2 and 0.1, respectively. One hundred microliters of an S. cerevisiae or C. albicans cell suspension and 1 μl compound in DMSO were incubated for 30 min. Twenty-five microliters of the suspension was then transferred to a black 96-well plate containing 25 μl BacTiter-Glo reagent (Promega, Madison, WI) and incubated for 15 min in the dark. The luminescence was read on SpectraMax X5 (Molecular Devices, Sunnyvale, CA) plate reader with a 10 s of shaking and a 0.5 s integration time. Standard curves at 10, 100, and 1,000 nM ATP were performed with every experiment.

The test system of another data set is C. albicans. Kind of data set: Medium acidification assay, C. albicans. Format: cell-based, Candida albicans. Particulars: Candida albicans, 0.2 h; 50% inhibition of medium acidification, 12 min, n = 2 to 3; read-out: IC50 for acidification, C. albicans. The method, then:
(§4) Frozen stocks of C. albicans and S. cerevisiae were transferred to YPD agar plates and incubated overnight at 34°C. On the next day, the cells were suspended and washed twice in 50 mM KCl, pH 6.7, after pelleting of the cells by centrifugation at 3,000 × g for 5 min. The cells were then starved overnight at 4°C in the KCl solution. […] The pH drop was then monitored by determination of the fluorescent signal with excitation at 485 nm and emission at 538 nm on a Fluoroskan Ascent plate reader (Thermo Fisher Scientific) for 12 min. The rate of medium acidification was calculated on the basis of the slope of the drop in fluorescence.

Another data set concerns S. cerevisiae. Put plainly: Medium acidification assay, S. cerevisiae. Format: cell-based, Saccharomyces cerevisiae. Particulars: Saccharomyces cerevisiae, 0.2 h; 50% inhibition of medium acidification, 12 min, n = 2 to 3. As for the experimental part: as §4
Data set [5] has as its system Aspergillus fumigatus ATCC 13073. Kind of data set: microbe, parasite or virus in culture. Particulars: Aspergillus fumigatus, ATCC13073, 72 h, pH 7, read-out: MIC A. fumigatus. As for the experimental part:
as §1, with “microorganism.” for “microorganism. Standard errors were typically below 5%.”

The target of data set [6] is T2, Ca^2+-ATPase (SERCA1a). Kind of data set: ATP hydrolysis assay, SERCA. Format: biochemical, rabbit. As to conditions: Table 1; ATP hydrolysis at pH 7.4 (compounds marked b).
[7] abbreviates: Table 1, ATP hydrolysis at pH 7, 2 to 3 experiments, read-out: IC50 Pma1.

Molecules are shown by their SMILES. ≈ marks a conversion by molar mass, not a printed value. Where two headings read alike, the source gives them in different places.

Sequence of S. cerevisiae Pma1 (P05030 whole entry, canonical isoform): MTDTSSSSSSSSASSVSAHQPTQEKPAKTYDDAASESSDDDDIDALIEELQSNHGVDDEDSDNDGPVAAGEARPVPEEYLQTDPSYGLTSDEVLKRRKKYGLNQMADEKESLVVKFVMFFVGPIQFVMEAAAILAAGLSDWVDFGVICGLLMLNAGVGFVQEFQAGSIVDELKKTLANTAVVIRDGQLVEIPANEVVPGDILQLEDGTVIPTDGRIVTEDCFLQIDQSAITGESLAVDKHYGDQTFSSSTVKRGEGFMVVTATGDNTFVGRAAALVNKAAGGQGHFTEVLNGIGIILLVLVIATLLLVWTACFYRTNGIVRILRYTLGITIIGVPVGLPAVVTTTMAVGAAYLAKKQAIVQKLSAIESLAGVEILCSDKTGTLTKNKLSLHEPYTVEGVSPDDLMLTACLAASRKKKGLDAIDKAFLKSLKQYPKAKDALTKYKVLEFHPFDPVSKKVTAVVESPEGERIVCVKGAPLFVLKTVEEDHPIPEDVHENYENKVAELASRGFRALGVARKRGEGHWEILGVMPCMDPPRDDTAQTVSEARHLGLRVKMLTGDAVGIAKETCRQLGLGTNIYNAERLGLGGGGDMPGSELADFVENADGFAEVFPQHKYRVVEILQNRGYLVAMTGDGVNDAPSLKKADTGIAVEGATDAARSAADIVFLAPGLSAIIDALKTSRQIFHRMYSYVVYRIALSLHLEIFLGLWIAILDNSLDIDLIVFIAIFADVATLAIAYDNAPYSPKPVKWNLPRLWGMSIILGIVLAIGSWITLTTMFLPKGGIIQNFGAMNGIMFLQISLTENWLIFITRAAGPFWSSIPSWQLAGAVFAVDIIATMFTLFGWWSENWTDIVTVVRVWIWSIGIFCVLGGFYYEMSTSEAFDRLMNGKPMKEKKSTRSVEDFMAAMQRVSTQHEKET
T2 sequence (P04191 1-994 isoform P04191-2): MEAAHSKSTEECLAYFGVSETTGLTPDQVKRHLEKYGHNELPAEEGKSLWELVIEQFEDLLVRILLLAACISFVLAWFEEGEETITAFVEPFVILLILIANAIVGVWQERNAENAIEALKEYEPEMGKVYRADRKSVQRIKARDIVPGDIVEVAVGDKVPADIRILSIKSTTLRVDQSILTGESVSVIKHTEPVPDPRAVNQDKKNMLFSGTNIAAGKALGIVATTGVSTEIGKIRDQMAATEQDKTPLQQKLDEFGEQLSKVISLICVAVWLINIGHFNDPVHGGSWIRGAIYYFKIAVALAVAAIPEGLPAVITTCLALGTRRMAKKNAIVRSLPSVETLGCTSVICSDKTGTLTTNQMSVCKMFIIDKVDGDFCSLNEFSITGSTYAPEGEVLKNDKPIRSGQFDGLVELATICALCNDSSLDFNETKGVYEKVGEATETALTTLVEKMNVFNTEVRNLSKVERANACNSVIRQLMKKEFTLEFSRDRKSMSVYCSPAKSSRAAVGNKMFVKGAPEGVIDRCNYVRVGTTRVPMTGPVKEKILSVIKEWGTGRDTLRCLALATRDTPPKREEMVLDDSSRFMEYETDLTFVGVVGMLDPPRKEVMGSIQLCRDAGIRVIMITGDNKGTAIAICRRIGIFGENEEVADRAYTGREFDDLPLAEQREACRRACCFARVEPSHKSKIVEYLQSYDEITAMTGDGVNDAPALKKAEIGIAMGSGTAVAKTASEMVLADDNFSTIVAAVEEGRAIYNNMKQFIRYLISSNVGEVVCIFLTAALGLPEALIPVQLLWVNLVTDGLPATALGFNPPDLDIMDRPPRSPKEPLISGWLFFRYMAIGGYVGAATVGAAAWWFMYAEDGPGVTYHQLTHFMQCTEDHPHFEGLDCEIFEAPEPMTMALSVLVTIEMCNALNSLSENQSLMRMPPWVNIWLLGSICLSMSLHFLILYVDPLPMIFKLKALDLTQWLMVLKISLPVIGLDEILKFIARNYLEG

Take `O=C1[C@@H]2C(c3ccc(Br)cc3)=NN(c3ccccc3)[C@@H]2C(=O)N1c1ccccc1F` [Compound 2]: the “Compound precipitation observed in the growth medium at concentrations down to” value in data set [1] is recorded as “d Compound precipitation was observed in the growth medium at concentrations down to 48 μM”. Besides, the MIC in the data set with Candida spp. and with Candida albicans SC5314 was above 150 µM each time. For the same compound, the figures for the IC50 at Na^+,K^+-ATPase (ATP hydrolysis at pH 7), at Ca^2+-ATPase (SERCA1a) [2] and at S. cerevisiae Pma1 (setting [7]) were above 105 µM, above 105 µM and 2.1 ± 1.3 µM, respectively.

`CN1CCc2c(sc3c2C(=O)NC(c2ccc(-c4cccc(Cl)c4)o2)N3)C1` (stereo not drawn) [Compound 13]: the MIC with Candida albicans SC5314 is 23 µM (≈ 9.2 µg/mL); in data set [3] it was 31 µM (≈ 12.4 µg/mL); in [4], 47 µM (≈ 18.8 µg/mL); in the data set with Candida tropicalis Ct016, above 150 µM. The IC50 on Na^+,K^+-ATPase (ATP hydrolysis at pH 7) is 30.6 ± 11.1 µM; at Ca^2+-ATPase (SERCA1a) [2], 22 ± 3 µM; on S. cerevisiae Pma1 (ATP hydrolysis, S. cerevisiae Pma1, read-out: IC50 for Pma1) it was below 25 µM; on S. cerevisiae Pma1 (setting [7]), 22.6 ± 12.4 µM.

As to `CC[C@H]1/C=C/C=C/C[C@@H](C)[C@H](O)[C@@](C)(O)C(=O)[C@@H](C)[C@H](O)[C@@H](C)C(=O)[C@@H](C)[C@H](O)[C@@H](C)/C=C/C(=O)O[C@@H]2[C@H](C)[C@H](CC1)O[C@]1(CC[C@H](C)[C@H](C[C@@H](C)O)O1)[C@H]2C` [oligomycin, reference compound], the “Effects on iATP levels, in words” value with S. cerevisiae cells was “minimal effects”.

As for `N#CC(C#N)=NNc1cccc(Cl)c1` [CCCP, carbonyl cyanide m-chlorophenylhydrazone, reference compound], the “Effects on iATP levels, in words” value in the data set with S. cerevisiae cells is on record as “minimal effects”.

Take `C[C@@H]1[C@H](O)[C@@H](C)/C=C/C=C/C=C/C=C/C=C/C=C/C=C/[C@H](O[C@@H]2O[C@H](C)[C@@H](O)[C@H](N)[C@@H]2O)C[C@@H]2O[C@](O)(C[C@@H](O)C[C@@H](O)[C@H](O)CC[C@@H](O)C[C@@H](O)CC(=O)O[C@H]1C)C[C@H](O)[C@H]2C(=O)O` [AMB, amphotericin B, reference compound]: the IC50 in the data set on C. albicans and with S. cerevisiae was above 75 µM each time.

For the compound `O=C1C=CC(=O)N1c1cccc2ccccc12` [Compound 10], the MIC turned out to be 88 µM (≈ 19.6 µg/mL) with Candida albicans SC5314; 12 µM (≈ 2.68 µg/mL) in [3]; 99 µM (≈ 22.1 µg/mL) in data set [5]; 116 µM (≈ 25.9 µg/mL) in data set [4]; 15 µM (≈ 3.35 µg/mL) in the data set on Candida tropicalis Ct016. Further, the IC50 was above 105 µM at Na^+,K^+-ATPase (ATP hydrolysis at pH 7.4 (compounds marked b)); 3.4 ± 1.8 µM on Ca^2+-ATPase (SERCA1a) [6]; 9.4 ± 1.7 µM against S. cerevisiae Pma1 (IC50 Pma1, Table 1, ATP hydrolysis at pH 6.5 (compounds marked b), 2 to 3 experiments); below 25 µM at S. cerevisiae Pma1 (IC50 for Pma1, ATP hydrolysis, S. cerevisiae Pma1).
